# Experimental data: patent US20240124427A1, “HYDROXYHETEROCYCLOALKANE-CARBAMOYL DERIVATIVES” (Idorsia Pharmaceuticals Ltd, priority 2021, published 2024)
# Molecular target: human Gal-3 (hGal-3) (Homo sapiens (Human), UniProt P17931)
# Experiment: Competitive binding assay: biotinylated hGal-3 binding to microplate-adsorbed asialofetuin (ASF)
# Details: Activity on hGal-3; mean values of several measurements; mixture of diastereomers measured where not separated
# Description: The inhibitory activity of compounds is determined in competitive binding assays. This spectrophotometric assay measures the binding of biotinylated human Gal-3 (hGal-3) or human Gal-1 (hGal-1), respectively, to a microplate-adsorbed glycoprotein, asialofetuin (ASF) (Proc Natl Acad Sci USA. 2013 Mar 26;110(13):5052-7.). Alternatively, and preferably, a human Gal-1 version in which all six cysteines are substituted by serines may be used.
# Briefly, compounds are serially diluted in DMSO (working dilutions).
# Plates are incubated for 3 hours at 4° C., then washed with cold assay buffer (3×50 uL), incubated for 1 hour with 25 μL/well of a streptavidin-peroxidase solution (diluted in assay buffer to 80 ng/mL) at 4° C., followed by further washing steps with assay buffer (3×50 uL). Finally, 25 μL/well of ABTS substrate is added.
# The calculated IC50 values may fluctuate depending on the daily assay performance. Fluctuations of this kind are known to those skilled in the art. IC50 values from several measurements are given as mean values.
# Chain of human Gal-3 (hGal-3) (P17931 whole entry): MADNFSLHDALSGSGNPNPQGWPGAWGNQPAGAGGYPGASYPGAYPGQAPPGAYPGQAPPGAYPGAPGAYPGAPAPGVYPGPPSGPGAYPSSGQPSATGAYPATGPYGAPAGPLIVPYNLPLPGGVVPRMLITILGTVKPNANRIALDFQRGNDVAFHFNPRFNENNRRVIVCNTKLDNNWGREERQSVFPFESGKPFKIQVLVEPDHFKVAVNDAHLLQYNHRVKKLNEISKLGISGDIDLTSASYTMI
row,SMILES,IC50
1,"CO[C@@H]1[C@@H](n2cc(-c3cc(F)c(F)c(F)c3)nn2)[C@@H](O)[C@@H](CO)O[C@H]1C(=O)N(c1cc(Cl)cc(Cl)c1)[C@@H]1CCOC[C@H]1O [Example 103, (2R,3R,4S,5R,6R)-N-(3,5-dichlorophenyl)-5-hydroxy-6-(hydroxymethyl)-N-((3S,4R)-3-hydroxytetrahydro-2H-pyran-4-yl)-3-methoxy-4-(4-(3,4,5-trifluorophenyl)-1H-1,2,3-triazol-1-yl)tetrahydro-2H-pyran-2-carboxamide]",299 nM
2,"CO[C@@H]1[C@@H](n2cc(-c3ccc(Br)c(F)c3F)nn2)[C@@H](O)[C@@H](CO)O[C@H]1C(=O)N(c1cc(C)cc(Br)c1)[C@H]1COC[C@@H]1O [Example 14, (2R,3R,4S,5R,6R)-4-(4-(4-bromo-2,3-difluorophenyl)-1H-1,2,3-triazol-1-yl)-N-(3-bromo-5-methylphenyl)-5-hydroxy-6-(hydroxymethyl)-N-((3S,4R)-4-hydroxytetrahydrofuran-3-yl)-3-methoxytetrahydro-2H-pyran-2-carboxamide]",46 nM
3,"CO[C@@H]1[C@@H](n2cc(-c3cc(F)c(F)c(F)c3)nn2)[C@@H](O)[C@@H](CO)O[C@H]1C(=O)N(c1cc(Cl)cc(C#N)c1)[C@@H]1COC[C@H]1O [Example 34, (2R,3R,4S,5R,6R)-N-(3-chloro-5-cyanophenyl)-5-hydroxy-6-(hydroxymethyl)-N-((3R,4S)-4-hydroxytetrahydrofuran-3-yl)-3-methoxy-4-(4-(3,4,5-trifluorophenyl)-1H-1,2,3-triazol-1-yl)tetrahydro-2H-pyran-2-carboxamide]",102 nM
4,"CO[C@@H]1[C@@H](n2cc(-c3ccc(Br)c(F)c3F)nn2)[C@@H](O)[C@@H](CO)O[C@H]1C(=O)N(c1cc(Br)cc(C#N)c1)[C@H]1COC[C@@H]1O [Example 13, (2R,3R,4S,5R,6R)-4-(4-(4-bromo-2,3-difluorophenyl)-1H-1,2,3-triazol-1-yl)-N-(3-bromo-5-cyanophenyl)-5-hydroxy-6-(hydroxymethyl)-N-((3S,4R)-4-hydroxytetrahydrofuran-3-yl)-3-methoxytetrahydro-2H-pyran-2-carboxamide]",15 nM
5,"CO[C@@H]1[C@@H](n2cc(-c3cc(F)c(F)c(F)c3)nn2)[C@@H](O)[C@@H](CO)O[C@H]1C(=O)N(c1cc(C)cc(Br)c1)[C@@H]1CNCC[C@H]1O [Example 115, (2R,3R,4S,5R,6R)-N-(3-bromo-5-methylphenyl)-5-hydroxy-6-(hydroxymethyl)-N-((3R,4R)-4-hydroxypiperidin-3-yl)-3-methoxy-4-(4-(3,4,5-trifluorophenyl)-1H-1,2,3-triazol-1-yl)tetrahydro-2H-pyran-2-carboxamide]",196 nM

# Continued, values first:
row,IC50,SMILES
1,175 nM,"CO[C@@H]1[C@@H](n2cc(-c3ccc(Cl)c(Cl)c3)nn2)[C@@H](O)[C@@H](CO)O[C@H]1C(=O)N(c1cc(C)cc(Br)c1)[C@@H]1COC[C@H]1O [Example 58, (2R,3R,4S,5R,6R)-N-(3-bromo-5-methylphenyl)-4-(4-(3,4-dichlorophenyl)-1H-1,2,3-triazol-1-yl)-5-hydroxy-6-(hydroxymethyl)-N-((3R,4S)-4-hydroxytetrahydrofuran-3-yl)-3-methoxytetrahydro-2H-pyran-2-carboxamide]"
2,51 nM,"CO[C@@H]1[C@@H](n2cc(-c3cc(F)c(F)c(F)c3)nn2)[C@@H](O)[C@@H](CO)O[C@H]1C(=O)N(c1cc(C)cc(Br)c1)[C@H]1CN(C)C[C@@H]1O [Example 96, (2R,3R,4S,5R,6R)-N-(3-bromo-5-methylphenyl)-5-hydroxy-N-((3S,4S)-4-hydroxy-1-methylpyrrolidin-3-yl)-6-(hydroxymethyl)-3-methoxy-4-(4-(3,4,5-trifluorophenyl)-1H-1,2,3-triazol-1-yl)tetrahydro-2H-pyran-2-carboxamide]"
